“Also recorded” adds a separate entry of the source.
Experiments:
TET1 protein = target: T1, TET1 protein (Homo sapiens, UniProt Q8NFU7); assay: Fluorometric TET hydroxylase activity assay with purified TET1 enzyme; format: biochemical; conditions: for inhibitory activity towards TET1: screened at 10^−7 to 10^−4 M
T1 construct: purchased Active Motif, Carlsbad, CA, USA
Experimental: Figure 4 and Table S1 show the dependence of TET1 activity on the concentration of compound 1.
Compounds 1–6 were tested for the inhibition of the total 5mC hydroxylase TET enzyme using a purified TET1 enzyme (Active Motif, Carlsbad, CA, USA) by a fluorometric TET hydroxylase activity quantification kit (Abcam, Cambridge, UK). A total of 25 µg of purified TET1 protein was diluted in a TET assay buffer in a 5 mL volumetric flask, containing α-ketoglutarate and ferric sulfate. The concentrations of ascorbic acid, α-ketoglutarate, and ferric sulfate in the diluted TET assay buffer were 2, 1, and 0.1 mM, respectively. Tested compounds were dissolved in DMSO to obtain a concentration of 0.01 M. DMSO solutions of compounds 1–6 were then diluted with a TET assay buffer to concentrations of 10^−6, 10^−5, 10^−4, and 10^−3 M (in 10% of DMSO). Subsequently, 50 μL of the final TET assay buffer containing the TET1 protein and 5 μL of chelator’s solution was applied to each sample well. In control wells (TET1 without inhibitors), 5 μL of the final TET assay buffer with 10% DMSO was used instead of chelator’s solution. The final concentrations of chelators in a well plate were 10^−7, 10^−6, 10^−5, 10^−4, and 0 M with less than 1% of final concentration of DMSO. The following steps were performed according to manufacturer’s protocol. The TET1 protein converts methylated substrate to hydroxymethylated products, which could be recognized by a specific antibody. We determined the residual activity of the TET1 protein by measuring a fluorescence intensity on an enzyme-linked immunoabsorbent assay reader (ELISA), Infinite® 200 PRO (Tecan, Switzerland, Switzerland), at an excitation wavelength at 530 nm and an emission wavelength at 590 nm. Each concentration was measured twice within one test, and each test was repeated three times. IC50 values of active inhibitors were determined using GraphPad Prism 8 via nonlinear regression.

[1] = target: T2, recombinant His-tagged TET1 protein (Homo sapiens, UniProt Q8NFU7); assay: Microscale thermophoresis binding to His-tagged TET1; conditions: MST, HEPES pH 7.5, 50 nM TET1
T2 construct: purchased Active Motif, Carlsbad, CA, USA
T2 sequence (Q8NFU7 whole entry): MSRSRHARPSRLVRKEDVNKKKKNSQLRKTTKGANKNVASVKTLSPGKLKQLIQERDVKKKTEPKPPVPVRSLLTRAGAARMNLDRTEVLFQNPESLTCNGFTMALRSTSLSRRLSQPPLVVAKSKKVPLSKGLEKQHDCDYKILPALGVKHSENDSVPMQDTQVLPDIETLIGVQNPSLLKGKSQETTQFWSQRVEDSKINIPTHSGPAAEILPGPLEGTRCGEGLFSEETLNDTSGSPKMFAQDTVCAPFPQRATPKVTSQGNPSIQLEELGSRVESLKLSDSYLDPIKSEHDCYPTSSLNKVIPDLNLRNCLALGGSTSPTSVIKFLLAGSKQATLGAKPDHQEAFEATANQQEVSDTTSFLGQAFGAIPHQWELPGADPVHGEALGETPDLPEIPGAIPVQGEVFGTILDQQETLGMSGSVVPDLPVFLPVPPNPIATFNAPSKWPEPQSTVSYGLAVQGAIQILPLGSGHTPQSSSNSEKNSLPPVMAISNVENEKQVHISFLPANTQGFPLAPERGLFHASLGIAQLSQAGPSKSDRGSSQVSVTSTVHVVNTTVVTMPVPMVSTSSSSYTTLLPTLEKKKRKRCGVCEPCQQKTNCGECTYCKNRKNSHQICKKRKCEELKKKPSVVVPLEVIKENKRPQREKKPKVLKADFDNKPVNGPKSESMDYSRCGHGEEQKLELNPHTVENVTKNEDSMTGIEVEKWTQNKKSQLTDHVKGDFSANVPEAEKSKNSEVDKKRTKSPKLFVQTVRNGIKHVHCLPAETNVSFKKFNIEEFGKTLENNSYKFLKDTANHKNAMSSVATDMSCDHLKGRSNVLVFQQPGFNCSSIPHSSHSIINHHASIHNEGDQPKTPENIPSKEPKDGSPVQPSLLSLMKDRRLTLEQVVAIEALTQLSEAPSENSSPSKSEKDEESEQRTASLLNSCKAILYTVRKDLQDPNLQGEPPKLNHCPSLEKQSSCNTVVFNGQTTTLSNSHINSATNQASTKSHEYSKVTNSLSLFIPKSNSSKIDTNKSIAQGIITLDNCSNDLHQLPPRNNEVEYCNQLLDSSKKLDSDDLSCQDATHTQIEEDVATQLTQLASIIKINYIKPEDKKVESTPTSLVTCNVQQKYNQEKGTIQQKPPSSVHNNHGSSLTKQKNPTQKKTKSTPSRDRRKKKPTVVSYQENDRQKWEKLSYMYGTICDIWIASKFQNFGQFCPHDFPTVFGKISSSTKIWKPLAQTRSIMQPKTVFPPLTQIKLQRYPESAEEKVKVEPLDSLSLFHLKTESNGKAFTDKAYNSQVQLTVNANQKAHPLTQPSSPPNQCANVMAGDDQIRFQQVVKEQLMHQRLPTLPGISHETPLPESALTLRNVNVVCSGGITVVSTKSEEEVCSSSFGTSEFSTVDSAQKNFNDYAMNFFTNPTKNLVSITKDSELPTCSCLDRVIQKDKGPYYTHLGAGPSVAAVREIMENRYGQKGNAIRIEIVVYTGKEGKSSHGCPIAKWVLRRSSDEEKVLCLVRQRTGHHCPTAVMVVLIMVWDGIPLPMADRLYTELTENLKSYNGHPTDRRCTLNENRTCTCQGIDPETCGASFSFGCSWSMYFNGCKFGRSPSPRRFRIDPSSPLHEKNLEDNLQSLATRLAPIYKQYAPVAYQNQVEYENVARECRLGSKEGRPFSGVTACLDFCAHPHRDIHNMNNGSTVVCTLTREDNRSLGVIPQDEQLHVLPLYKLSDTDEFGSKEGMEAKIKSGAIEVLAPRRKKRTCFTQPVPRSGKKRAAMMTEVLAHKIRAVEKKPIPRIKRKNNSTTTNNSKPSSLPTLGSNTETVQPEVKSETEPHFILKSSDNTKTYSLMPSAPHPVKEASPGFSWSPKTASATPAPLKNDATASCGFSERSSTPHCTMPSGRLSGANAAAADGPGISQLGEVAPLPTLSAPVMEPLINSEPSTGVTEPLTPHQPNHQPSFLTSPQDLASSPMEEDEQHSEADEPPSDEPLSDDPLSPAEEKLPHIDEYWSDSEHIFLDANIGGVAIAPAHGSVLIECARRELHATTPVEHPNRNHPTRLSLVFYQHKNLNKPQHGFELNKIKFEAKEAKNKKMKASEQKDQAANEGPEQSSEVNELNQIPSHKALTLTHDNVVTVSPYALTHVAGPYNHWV
Experimental: We observed a ligand concentration-dependent decrease in labeled protein fluorescence (Figure 5), and fluorescence measurements during serial dilution were performed to discriminate between binding-specific fluorescence quenching (Figure 6) and loss of fluorescence due to protein precipitation.
For this test, the remainder of tubes 1 to 3 and 14 to 16 prepared in the original binding assay were centrifuged for 10 min at 15,000× g. Thereafter, 10 μL of each sample was removed and mixed with an equal volume of SD-mix (4% SDS and […] (assay buffer)) and heated to 95 °C for 5 min to denature the protein. Subsequently, samples were loaded to standard capillaries, and the fluorescence was detected using a Monolith NT.115. […] The KD value was calculated from ligand concentration-dependent changes in normalized fluorescence (Fnorm) of the TET1 protein after 25 s of thermophoresis, based on the law of mass action using the NT. Affinity Analysis software. […]
Microscale thermophoresis (MST) is a sensitive method that can be used to assess biomolecular interactions and has been utilized to study interactions between a variety of binding partners of different molecular sizes. […] Signals were recorded using 20% MST power and 40% LED power after 25 s. Measurement was repeated two times, and data were analyzed using the NTAnalysis software. […]

T1 sequence (Q8NFU7 whole entry): as above

Structure (SMILES) | inhibitory activity towards TET1 (TET1 protein) | Kd [1] | average residual TET activity (%) (TET1 protein; Log c 4) | average residual TET activity (%) (TET1 protein; Log c 5) | average residual TET activity (%) (TET1 protein; Log c 6) | average residual TET activity (%) (TET1 protein; Log c 7)
Cc1ccc(-n2c(-c3ccc(C(=O)N/N=C/c4ccc(O)cc4O)cc3)cc3c2cc(-c2ccc(C(=O)N/N=C/c4ccc(O)cc4O)cc2)n3-c2ccc(C)cc2)cc1 [Compound 4] | no inhibitory effect; also recorded: no significant inhibition | – | – | – | – | –
CCN(CC)c1ccc(/C=N/NC(=O)c2ccc(-c3cc4c(cc(-c5ccc(C(=O)N/N=C/c6ccc(N(CC)CC)cc6O)cc5)n4-c4ccc(C)cc4)n3-c3ccc(C)cc3)cc2)c(O)c1 [Compound 2] | no inhibitory effect; also recorded: no significant inhibition | – | – | – | – | –
Cc1ccc(-n2c(-c3ccc(C(=O)NN)cc3)cc3c2cc(-c2ccc(C(=O)NN)cc2)n3-c2ccc(C)cc2)cc1 [Compound 1] | – | 27.2 ± 0.9 µM | 5.108% | 19.97% | 56.08% | 82.59%
